ChEMBL document CHEMBL1212788, “Mode of action of Van-M-02, a novel glycopeptide inhibitor of peptidoglycan synthesis, in vancomycin-resistant bacteria” (Antimicrob Agents Chemother, 2010)
Values after ≈ are worked out from the molar mass of the structure shown.

Assays:
[1] = test system: Staphylococcus aureus; test: Inhibition of lipid intermediate formation in vancomycin A resistant Staphylococcus aureus isolate HIP11714 assessed as reduction in N-acetyl-D-[1-3H]glucosamine incorporation in crude assay system; format: functional
[2] = test system: Staphylococcus aureus; test: Antibacterial activity against methicillin susceptible Staphylococcus aureus Smith by broth dilution method; format: functional
[3] = test system: Staphylococcus aureus; test: Antibacterial activity against methicillin susceptible Staphylococcus aureus RN4220 by broth dilution method; format: functional
[4] = test system: Staphylococcus aureus; test: Antibacterial activity against methicillin susceptible Staphylococcus aureus RN4220 in presence of 8 ug/mL Nalpha,Nepsilon-diacetyl-L-Lys-D-Ala-D-Ala by broth dilution method; format: functional
[5] = test system: Staphylococcus aureus; test: Antibacterial activity against methicillin susceptible Staphylococcus aureus RN4220 in presence of 8 ug/mL Nalpha,Nepsilon-diacetyl-L-Lys-D-Ala-D-Lactate by broth dilution method; format: functional
[6] = test system: Staphylococcus aureus; test: Antibacterial activity against methicillin susceptible Staphylococcus aureus RN4220 in presence of 64 ug/mL Nalpha,Nepsilon-diacetyl-L-Lys-D-Ala-D-Ala by broth dilution method; format: functional
[7] = test system: Staphylococcus aureus; test: Antibacterial activity against methicillin resistant Staphylococcus aureus SR-3637 by broth dilution method; format: functional; settings: SR3637
[8] = Inhibition of methicillin susceptible Staphylococcus aureus RN4220 transglycosylase assessed as inhibition of peptidoglycan formation by crude assay
[9] = test system: Staphylococcus aureus; test: Antibacterial activity against methicillin susceptible Staphylococcus aureus RN4220 in presence of 64 ug/mL Nalpha,Nepsilon-diacetyl-L-Lys-D-Ala-D-Lactate by broth dilution method; format: functional
[10] = test system: Staphylococcus aureus; test: Antibacterial activity against vancomycin A resistant Staphylococcus aureus isolate HIP11714 by broth dilution method; format: functional
[11] = test system: Staphylococcus aureus; test: Antibacterial activity against vancomycin intermediate Staphylococcus aureus ATCC 700787 by broth dilution method; format: functional
[12] = test system: Enterococcus faecalis; test: Antibacterial activity against vancomycin susceptible Enterococcus faecalis isolate SR1004 by broth dilution method; format: functional
[13] = test system: Enterococcus faecium; test: Antibacterial activity against constitutively vancomycin B resistant Enterococcus faecium isolate SRM1101 by broth dilution method; format: functional
[14] = test system: Enterococcus faecium; test: Antibacterial activity against vancomycin B resistant Enterococcus faecium isolate SR-23598 by broth dilution method; format: functional; settings: isolate SR23598
[15] = test system: Enterococcus faecalis; test: Antibacterial activity against vancomycin B resistant Enterococcus faecalis isolate SR-23630 by broth dilution method; format: functional; settings: isolate SR23630
[16] = Inhibition of vancomycin A resistant Staphylococcus aureus isolate HIP11714 transglycosylase assessed as inhibition of peptidoglycan formation by crude assay
[17] = test system: Enterococcus faecium; test: Antibacterial activity against vancomycin A resistant Enterococcus faecium isolate SR-7940 by broth dilution method; format: functional; settings: isolate SR7940
[18] = test system: Enterococcus faecium; test: Antibacterial activity against vancomycin sensitive Enterococcus faecium isolate SR-16972 by broth dilution method; format: functional; settings: isolate SR16972
[19] = test system: Enterococcus faecalis; test: Antibacterial activity against vancomycin A resistant Enterococcus faecalis isolate SR-7914 by broth dilution method; format: functional; settings: isolate SR7914
[20] = test system: Staphylococcus aureus; test: Inhibition of lipid intermediate formation in methicillin susceptible Staphylococcus aureus RN4220 assessed as reduction in N-acetyl-D-[1-3H]glucosamine incorporation in crude assay system; format: functional

SMILES	IC50 [1]	MIC [2]	MIC [3]	MIC [4]	MIC [5]	MIC [6]	MIC [7]	IC50 [8]	MIC [9]	MIC [10]	MIC [11]	MIC [12]	MIC [13]	MIC [14]	MIC [15]	IC50 [16]	MIC [17]	MIC [18]	MIC [19]	IC50 [20]
Cc1ccc(C(=O)Nc2cccc(CN[C@]3(C)C[C@@H](O[C@@H]4[C@@H](Oc5c6cc7cc5Oc5ccc(cc5Cl)[C@@H](O)[C@@H](N)C(=O)N[C@@H](CC(N)=O)C(=O)N[C@H]7C(=O)N[C@H]5C(=O)N[C@H](C(=O)N[C@H](C(=O)O)c7cc(O)cc(O)c7-c7cc5ccc7O)[C@H](O)c5ccc(c(Cl)c5)O6)O[C@@H](CO)[C@H](O)[C@H]4O)O[C@H](C)[C@@H]3O)c2)c([N+](=O)[O-])c1OCc1ccccc1	93 µg/mL (≈ 54.8 µM)	2 µg/mL (≈ 1.18 µM)	2 µg/mL (≈ 1.18 µM)	2 µg/mL	2 µg/mL	2 µg/mL	2 µg/mL (≈ 1.18 µM)	11 µg/mL (≈ 6.48 µM)	1 µg/mL	16 µg/mL (≈ 9.43 µM)	4 µg/mL (≈ 2.36 µM)	2 µg/mL (≈ 1.18 µM)	16 µg/mL (≈ 9.43 µM)	4 µg/mL (≈ 2.36 µM)	4 µg/mL (≈ 2.36 µM)	53 µg/mL (≈ 31.2 µM)	8 µg/mL (≈ 4.72 µM)	2 µg/mL (≈ 1.18 µM)	8 µg/mL (≈ 4.72 µM)	140 µg/mL (≈ 82.5 µM)
C[C@H]1O[C@H](O[C@@H]2[C@@H](Oc3c4cc5cc3Oc3ccc(cc3Cl)[C@@H](O)[C@@H](N)C(=O)N[C@@H](CC(N)=O)C(=O)N[C@H]5C(=O)N[C@H]3C(=O)N[C@H](C(=O)N[C@H](C(=O)O)c5cc(O)cc(O)c5-c5cc3ccc5O)[C@H](O)c3ccc(c(Cl)c3)O4)O[C@@H](CO)[C@H](O)[C@H]2O)C[C@@](C)(N)[C@H]1O	3100 µg/mL (≈ 2340 µM)	> 64 µg/mL	> 64 µg/mL				> 64 µg/mL	130 µg/mL (≈ 98.3 µM)		> 64 µg/mL	> 64 µg/mL	> 64 µg/mL	> 64 µg/mL	> 64 µg/mL	> 64 µg/mL	920 µg/mL (≈ 696 µM)	> 64 µg/mL	> 64 µg/mL	> 64 µg/mL	3900 µg/mL (≈ 2950 µM)
CN[C@H](CC(C)C)C(=O)N[C@H]1C(=O)N[C@@H](CC(N)=O)C(=O)N[C@H]2C(=O)N[C@H]3C(=O)N[C@H](C(=O)N[C@H](C(=O)O)c4cc(O)cc(O)c4-c4cc3ccc4O)[C@H](O)c3ccc(c(Cl)c3)Oc3cc2cc(c3O[C@H]2O[C@@H](CO)[C@H](O)[C@@H](O)[C@@H]2O[C@@H]2C[C@@](C)(NCc3cccc(NC(=O)c4ccc(C)c(OCc5ccccc5)c4[N+](=O)[O-])c3)[C@@H](O)[C@@H](C)O2)Oc2ccc(cc2Cl)[C@H]1O	76 µg/mL (≈ 41.7 µM)	0.125 µg/mL (≈ 0.0685 µM)	0.125 µg/mL (≈ 0.0685 µM)	0.125 µg/mL	0.125 µg/mL	0.5 µg/mL	0.25 µg/mL (≈ 0.137 µM)	4.2 µg/mL (≈ 2.3 µM)	0.0625 µg/mL	4 µg/mL (≈ 2.19 µM)	2 µg/mL (≈ 1.1 µM)	0.25 µg/mL (≈ 0.137 µM)	4 µg/mL (≈ 2.19 µM)	0.25 µg/mL (≈ 0.137 µM)	0.5 µg/mL (≈ 0.274 µM)	36 µg/mL (≈ 19.7 µM)	1 µg/mL (≈ 0.548 µM)	0.25 µg/mL (≈ 0.137 µM)	2 µg/mL (≈ 1.1 µM)	32 µg/mL (≈ 17.5 µM)
CN[C@H](CC(C)C)C(=O)N[C@H]1C(=O)N[C@@H](CC(N)=O)C(=O)N[C@H]2C(=O)N[C@H]3C(=O)N[C@H](C(=O)N[C@H](C(=O)O)c4cc(O)cc(O)c4-c4cc3ccc4O)[C@H](O)c3ccc(c(Cl)c3)Oc3cc2cc(c3O[C@@H]2O[C@H](CO)[C@@H](O)[C@H](O)[C@H]2O[C@H]2C[C@](C)(N)[C@H](O)[C@H](C)O2)Oc2ccc(cc2Cl)[C@H]1O [VANCOMYCIN]	2300 µg/mL (≈ 1590 µM)					16 µg/mL		4.5 µg/mL (≈ 3.11 µM)		> 64 µg/mL	8 µg/mL (≈ 5.52 µM)	2 µg/mL (≈ 1.38 µM)	> 64 µg/mL	> 64 µg/mL	32 µg/mL (≈ 22.1 µM)	85 µg/mL (≈ 58.7 µM)	> 64 µg/mL		> 64 µg/mL	180 µg/mL (≈ 124 µM)
